Measurements taken from article PMC4464647, “ANO1 (TMEM16A) in pancreatic ductal adenocarcinoma (PDAC)” (Pflugers Archiv, 2014).
d = 2'-deoxy (DNA)

How the values were obtained:
Type in all cases: cell-based, human
VRAC = experiment: Whole-cell patch-clamp of swelling-activated (VRAC) currents, hypotonic bath, 0 μM Ca2+ pipette; conditions: HPDE and BxPC-3 cells, inhibitor 20 μM, Vm = +65 mV
Method: Cells were grown on poly-L-lysine coated coverslips. For knockdown experiments, cells were transfected with siRNA targeting ANO1 or scrambled siRNA shortly after complete attachment of the cells (approx. 3 h after plating). Currents were measured 36–48 h after transfection. Whole-cell patch-clamp recordings were performed using the Axopatch 200B amplifier interfaced to a Digidata 1440A controlled by pClamp10 software (Molecular Devices, USA). Analogue signals were acquired at 2.5 kHz and filtered at 1 kHz. […] An agar bridge made of 3 % agar and 97 % of the bath solution containing NMDG-Cl (below) was used as reference electrode. Current activations were recorded from an output holding potential, V out = 0 mV with ramp protocols spanning from −100 to 100 mV over 1 s and run continuously with 15-s intervals. […] Liquid junction potentials (V lj) were estimated as described in [10] with membrane potentials calculated as, V m = V out − V lj. […] Instantaneous currents were measured 1 ms after each voltage step. […]
One micromolar free Ca^2+ pipette solution include the following (in mM): 100 CsAsp, 40 CsCl, 4.34 CaCl2, 4 Na2ATP, 1 MgCl2, 5 EGTA, 10 HEPES, pH 7.2, osmolality 295 mosmol/kg or 0 μM free Ca^2+ solution containing no CaCl2 and 10 mM EGTA. […] All osmolalities were measured in a Wescor Vapro model 5520 osmometer (Wescor Inc., USA) calibrated by the manufacturer’s Optimol standard solutions. […]

BxPC-3 cells = experiment: Scratch wound healing assay; conditions: 5 μM aphidicolin; for effect on wound closure / migratory behavior: BxPC-3, inhibitor 20 μM
Method: Cells were seeded into Essen ImageLock 96-well plates. Cells were transfected with siRNA shortly after cells completely attached at 80 % confluency. […] The wound confluence was obtained and analyzed by using the IncuCyte phase-contrast imaging and scratch wound assay system and software (Essen Bioscience, USA). Wound closure was assessed by comparing the mean relative wound density (%RWD) according to the following formula: % RWD = 100 × w(t) − w(0)/[…]. Here, w(t) is the density of wounded area at time t and c(t) is the density of cell region at time t. Each experiment was conducted in triplicates.
We therefore assessed a possible contribution of ANO1 in PDAC cell migration using wound healing assay. […] The experiments were conducted in the presence of 5 μM aphidicolin to rule out a possible effect on cell proliferation. […] AsPC-1 cells were therefore not well suited for studies of lateral motility.
Fig. 9 ANO1 supports migration of PDAC cells. Wound healing assay is shown as relative wound density (density of wounded area relative to confluency of cell region) over time. Aphidicolin (5 μM) was added to stop proliferation. a AsPC-1 cells and b BxPC-3 cells after transfection with either scrambled siRNA (5 nM) or siRNA targeting ANO1 (50 nM). c BxPC-3 cells in presence of different inhibitors. Data shown represents mean ± s.e.m. of n = 4 experiments; each run was carried out in triplicates

[1] = system: HPDE, Capan-1, AsPC-1, and BxPC-3 cells; experiment: BrdU incorporation cell proliferation assay, all tested cell lines
Method: To assess cell proliferation and apoptosis, cells were plated in duplicates on a 96-well plate and incubated in 100 μl of the cell line appropriate media described above. Cells were transfected with siRNA soon after complete attachment (approx. 3 h after seeding). Cells were treated with vehicle, 20 μM gemcitabine, 20 μM T16Ainh-A01, or 10 μM free NS3728 (see below) after culture in a humidified 37 °C and 5 % CO2 incubator overnight. BrdU incorporation was measured using Cell Proliferation ELISA, BrdU (chemiluminescent) (Roche Diagnostics A/S, Denmark) following the manufacturer’s instructions. Caspases 3, 6, and 7 activation was evaluated using Homogeneous Caspases Assay (fluorimetric) (Roche Diagnostics A/S, Denmark).
Fig. 7 VRAC, but not ANO1, regulates cellular proliferation. a Summary of BrdU incorporation in HPDE, Capan-1, AsPC-1, and BxPC-3 cells after various treatments as indicated. Cells were transfected shortly after complete attachment (approx. 3 h) and BrdU incorporation was assessed 36 h after transfection. To investigate effect of inhibitors, cells were incubated for 24 h with respective inhibitor. Values shown are relative to appropriate control. Data shown represents mean ± s.e.m. of n = 4–6 individual experiments. **p ≤ 0.01 and ***p ≤ 0.001 when compared with control

Row | Compound | effect on VRAC currents (VRAC) | effect on wound closure / migratory behavior (BxPC-3 cells) | proliferation (BrdU incorporation) ([1]; ANO1-overexpressing cancer cells, 20 μM, 24 h) | proliferation (BrdU incorporation) ([1]; siRNA 50 nM vs mock 5 nM, 36 h after transfection, any of the tested cell lines) | migration decreased to (BxPC-3 cells; BxPC-3, siRNA 50 nM, after 60 h)
1 | CC(C)(C)C1CCc2c(sc(NC(=O)c3ccco3)c2C(=O)O)C1 (stereo not shown) [CaCCinh-A01, 6-(1,1-dimethylethyl)-2-[(2-furanylcarbonyl)amino]-4,5,6,7-tetrahydrobenzo[b]thiophene-3-carboxylic acid] | Neither T16Ainh-A01 nor CaCCinh-A01 inhibited the VRAC currents significantly | seemed to slow down wound closure; however, this did not reach significance | – | – | –
2 | CCc1c(C)nc(SCC(=O)Nc2nc(-c3ccc(OC)cc3)cs2)[nH]c1=O [T16Ainh-A01, 2-[(5-Ethyl-1,6-dihydro-4-methyl-6-oxo-2-pyrimidinyl)thio]-N-[4-(4-methoxyphenyl)-2-thiazolyl]acetamide] | Neither T16Ainh-A01 nor CaCCinh-A01 inhibited the VRAC currents significantly | no detectable effect on migratory behavior | none of the ANO1-overexpressing cancer cells showed any significant decrease in proliferation | – | –
3 | siRNA targeting ANO1: Predesigned siRNA oligo from Sigma-Aldrich, 5′-CCUUCAACGUCAGUGACUU[dT][dT]-3′, 5′-AAGUCACUGACGUUGAAGG[dT][dT]-3′ (RNA, 3' dTdT, backbone not given here) | – | – | – | did not cause any significant change in proliferation | 30 ± 8%
